We go through 25 molecules from US8138205B2, “Heteroarylalkoxy-substituted quinolone inhibitors of PDE4” (Kalypsys, Inc., priority 2006, dated 2012).

Usually IC50 stands for the concentration that gives 50% inhibition. The term solubility denotes the dissolved amount per volume that the medium holds. A lower solubility goes with a poorly soluble substance.

T1 sequence (Q07343 330-659 limits assumed, species assumed): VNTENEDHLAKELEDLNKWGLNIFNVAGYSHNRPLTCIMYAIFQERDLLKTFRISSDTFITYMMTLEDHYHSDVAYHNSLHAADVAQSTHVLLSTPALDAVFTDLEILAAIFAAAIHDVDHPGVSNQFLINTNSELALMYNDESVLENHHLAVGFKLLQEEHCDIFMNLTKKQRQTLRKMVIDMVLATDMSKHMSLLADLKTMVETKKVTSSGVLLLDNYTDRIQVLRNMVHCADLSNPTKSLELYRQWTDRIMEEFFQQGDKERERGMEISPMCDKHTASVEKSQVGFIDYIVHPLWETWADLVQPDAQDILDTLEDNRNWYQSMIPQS

One data set concerns the target T1, PDE4B (Homo sapiens, UniProt Q07343).
T1 construct: hex-histidine (His6) (N); made in house
As to the kind of experiment: PDE/AK Biological Activity Assay (coupled PDE/adenylate kinase bioluminescent assay). It is filed as biochemical. Conditions: catalytic domain of PDE4B, read-out: PDE4 Enzyme IC50. From the text: Phosphodiesterases regulate the activity of the second messenger cyclic adenosine monophosphate (cAMP) by hydrolyzing cAMP to adenosine monophosphate (AMP). We developed a coupled PDE/AK bioluminescent high-throughput assay to measure the activity of phosphodiesterases. In the PDE/AK assay, the AMP produced from the hydrolysis of cAMP by phosphodiesterase is converted to adenosine diphosphate (ADP) by the phosphotransferase activity of adenylate kinase (also known as ADK or myokinase). Adenylate kinase will catalyze the conversion of 1 mole of AMP and 1 mole of ATP into 2 moles of ADP. Thus the conversion of AMP to ADP will result in the subsequent loss of ATP. The decrease in ATP concentration can be monitored as light output using luciferase in a reaction that requires ATP to produce light. The PDE/AK assay uses luciferase, which catalyzes the production of light from ATP present in the reaction mix. The amount of emitted light is inversely proportional to the level of AMP present in the reaction. Test compounds are incubated with the phosphodiesterases and phosphodiesterase inhibitors will decrease the rate of cAMP hydrolysis and decrease the subsequent production of AMP. Thus phosphodiesterase inhibitors will decrease the conversion of ATP to ADP and result in the greatest emission of light.
Compounds may be screened for functional potency in in vitro biochemical assays for their ability to inhibit the activity of phosphodiesterase (PDE) enzymes. A coupled PDE/AK assay was utilized to measure the inhibitory activity of compounds on PDE isoforms. The catalytic domain of PDE4B was fused to an amino-terminus hex-histidine affinity tag and purified. PDE4B enzyme was incubated with compounds for 10 minutes. Cyclic AMP substrate, ATP and adenylate kinase were then added to the PDE enzyme mix and incubated for 45 minutes at room temperature. A commercial ATP detection assay, Perkin Elmer's easyLite ATP detection reagent, was then added to measure the relative amount of ATP present in the reaction. After 10 minute incubation, the luminescent signal was quantitated with either the Perkin Elmer Viewlux or Molecular Devices Acquest or Analyst. Roflumilast and Rolipram are the positive controls used in the assay.
On to `CCN1CCN(CCCCCCOc2c(OC)ccc3c(Nc4c(Cl)cncc4Cl)cc(=O)[nH]c23)CC1` [Example 23, 4-(3,5-dichloropyridin-4-ylamino)-8-(6-(4-ethylpiperazin-1-yl)hexyloxy)-7-methoxyquinolin-2(1H)-one], for which the IC50 is less than 1000 nM.

As to `COc1ccc2c(Nc3c(Cl)cncc3Cl)cc(=O)[nH]c2c1OCCCCCCN(C)CCN(C)C` [Example 24, 4-(3,5-dichloropyridin-4-ylamino)-8-(6-((2-(dimethylamino)ethyl)(methyl)amino)hexyloxy)-7-methoxyquinolin-2(1H)-one], the IC50 is less than 1000 nM.

Regarding `COc1ccc2c(Nc3c(Cl)cncc3Cl)cc(=O)[nH]c2c1OCCCCCCN1CCCNCC1` [Example 25, 8-(6-(1,4-Diazepan-1-yl)hexyloxy)-4-(3,5-dichloropyridin-4-ylamino)-7-methoxyquinolin-2(1H)-one], the IC50 is less than 1000 nM.

`COc1ccc2c(Nc3c(Cl)cncc3Cl)cc(=O)[nH]c2c1OCCCCCCN1CCCN(C)CC1` [Example 26, 4-(3,5-Dichloropyridin-4-ylamino)-7-methoxy-8-(6-(4-methyl-1,4-diazepan-1-yl)hexyloxy)quinolin-2(1H)-one]: the IC50 is less than 1000 nM.

Consider `COc1ccc2c(Nc3c(Cl)cncc3Cl)cc(=O)[nH]c2c1OCCCCCCN(C)CCCN(C)C` [Example 27, 4-(3,5-Dichloropyridin-4-ylamino)-8-(6-((3-(dimethylamino)propyl)(methyl)amino)hexyloxy)-7-methoxyquinolin-2(1H)-one], for which the half-inhibitory concentration (IC50) was less than 1000 nM.

In the case of `COc1ccc2c(Nc3c(Cl)cncc3Cl)cc(=O)[nH]c2c1OCCCCCCN` [Example 28, 8-(6-Aminohexyloxy)-4-(3,5-dichloropyridin-4-ylamino)-7-methoxyquinolin-2(1H)-one], the 50% inhibitory concentration (IC50) is less than 1000 nM.

Take `COc1ccc2c(Nc3c(Cl)cncc3Cl)cc(=O)[nH]c2c1OCCCCCCNCCO` [Example 29, 4-(3,5-Dichloropyridin-4-ylamino)-8-(6-(2-hydroxyethylamino)hexyloxy)-7-methoxyquinolin-2(1H)-one]: the half-inhibitory concentration (IC50) is less than 1000 nM.

For `COc1ccc2c(Nc3c(Cl)cncc3Cl)cc(=O)[nH]c2c1OCCCCCCN(CCO)CCO` [Example 31, 8-(6-(Bis(2-hydroxyethyl)amino)hexyloxy)-4-(3,5-dichloropyridin-4-ylamino)-7-methoxyquinolin-2(1H)-one], the IC50 is less than 1000 nM.

Regarding `COc1ccc2c(Nc3c(C)cncc3C)cc(=O)[nH]c2c1OCCCCCCN1CCN(C)CC1` [Example 34, 4-(3,5-Dimethylpyridin-4-ylamino)-7-methoxy-8-(6-(4-methylpiperazin-1-yl)hexyloxy)quinolin-2(1H)-one], the IC50 is less than 1000 nM.

For the molecule `COc1ccc2c(Nc3c(C)cncc3C)cc(=O)[nH]c2c1OCCCCN(C)C` [Example 44, 8-(4-(dimethylamino)butoxy)-4-(3,5-dimethylpyridin-4-ylamino)-7-methoxyquinolin-2(1H)-one], the IC50 is less than 1000 nM.

With `COc1ccc2c(Nc3c(Cl)cncc3Cl)cc(=O)[nH]c2c1OCCCCCCNC(=N)N` [Example 63, 1-(6-(4-(3,5-dichloropyridin-4-ylamino)-7-methoxy-2-oxo-1,2-dihydroquinolin-8-yloxy)hexyl)guanidine], the IC50 was less than 1000 nM.

With `COc1ccc2c(Nc3c(C)cncc3C)cc(=O)[nH]c2c1OCCCO` [Example 81, 4-(3,5-dimethylpyridin-4-ylamino)-8-(3-hydroxypropoxy)-7-methoxyquinolin-2(1H)-one], the 50% inhibitory concentration (IC50) was less than 1000 nM.

Take `COc1ccc2c(Nc3c(C)cncc3C)cc(=O)[nH]c2c1OCCCCO` [Example 82, 4-(3,5-dimethylpyridin-4-ylamino)-8-(4-hydroxybutoxy)-7-methoxyquinolin-2(1H)-one]: the IC50 is less than 1000 nM.

Regarding `COc1ccc2c(Nc3c(C)cncc3C)cc(=O)[nH]c2c1OCCCCCO` [Example 83, 4-(3,5-dimethylpyridin-4-ylamino)-8-(5-hydroxypentyloxy)-7-methoxyquinolin-2(1H)-one], the IC50 is less than 1000 nM.

Consider `COc1ccc2c(Nc3c(C)cncc3C)cc(=O)[nH]c2c1OCCCCCCO` [Example 84, 4-(3,5-dimethylpyridin-4-ylamino)-8-(6-hydroxyhexyloxy)-7-methoxyquinolin-2(1H)-one], for which the IC50 is less than 1000 nM.

For `COc1ccc2c(Nc3c(C)cncc3C)cc(=O)[nH]c2c1OCCCc1nn[nH]n1` [Example 85, 8-(3-(2H-tetrazol-5-yl)propoxy)-4-(3,5-dimethylpyridin-4-ylamino)-7-methoxyquinolin-2(1H)-one], the IC50 was less than 1000 nM.

Regarding `COc1ccc2c(Nc3c(C)cncc3C)cc(=O)[nH]c2c1OCCCCc1nn[nH]n1` [Example 86, 8-(4-(2H-tetrazol-5-yl)butoxy)-4-(3,5-dimethylpyridin-4-ylamino)-7-methoxyquinolin-2(1H)-one], the IC50 is less than 1000 nM.

In the case of `COc1ccc2c(Nc3c(C)cncc3C)cc(=O)[nH]c2c1OCCCCCc1nn[nH]n1` [Example 87, 8-(5-(2H-tetrazol-5-yl)pentyloxy)-4-(3,5-dimethylpyridin-4-ylamino)-7-methoxyquinolin-2(1H)-one], the IC50 was less than 1000 nM.

Take `COc1ccc2c(Nc3c(C)cncc3C)cc(=O)[nH]c2c1OCCCCCCc1nn[nH]n1` [Example 88, 8-(6-(2H-tetrazol-5-yl)hexyloxy)-4-(3,5-dimethylpyridin-4-ylamino)-7-methoxyquinolin-2(1H)-one]: the IC50 was less than 1000 nM.

As to `COc1ccc2c(Nc3c(Cl)cncc3Cl)cc(=O)[nH]c2c1OCCCCC(=O)NCC(=O)O` [Example 94, 2-(5-(4-(3,5-dichloropyridin-4-ylamino)-7-methoxy-2-oxo-1,2-dihydroquinolin-8-yloxy)pentanamido)acetic acid], the IC50 is less than 1000 nM.

In the case of `COc1ccc2c(Nc3c(Cl)cncc3Cl)cc(=O)[nH]c2c1OCCCCC(=O)N[C@@H](Cc1c[nH]cn1)C(=O)O` [Example 95, (S)-2-(5-(4-(3,5-dichloropyridin-4-ylamino)-7-methoxy-2-oxo-1,2-dihydroquinolin-8-yloxy)pentanamido)-3-(1H-imidazol-4-yl)propanoic acid], the IC50 is less than 1000 nM.

Turning to `COc1ccc2c(Nc3c(Cl)cncc3Cl)cc(=O)[nH]c2c1OCCCOCCOCCOCCO` [Example 96, 4-(3,5-dichloropyridin-4-ylamino)-8-(3-(2-(2-(2-hydroxyethoxy)ethoxy)ethoxy)propoxy)-7-methoxyquinolin-2(1H)-one], the IC50 was less than 1000 nM.

With `COCCOCCOCCOCCCOc1c(OC)ccc2c(Nc3c(Cl)cncc3Cl)cc(=O)[nH]c12` [Example 97, 8-(2,5,8,11-tetraoxatetradecan-14-yloxy)-4-(3,5-dichloropyridin-4-ylamino)-7-methoxyquinolin-2(1H)-one], the IC50 was less than 1000 nM.

On to `COc1ccc2c(Nc3c(Cl)cncc3Cl)cc(=O)[nH]c2c1OCCCOCCOCCO` [Example 98, 4-(3,5-dichloropyridin-4-ylamino)-8-(3-(2-(2-hydroxyethoxy)ethoxy)propoxy)-7-methoxyquinolin-2(1H)-one], for which the IC50 was less than 1000 nM.

Test system in another data set: not listed separately
As to the kind of experiment: Solubility Protocol. It is filed as physicochemical. Conditions: aqueous buffer, thermodynamic from solid; pH 7.4, 0.1 M sodium phosphate buffer. The protocol: About 5 mg of a compound was mixed with 500 μL of pH 7.4, 0.1 M sodium phosphate buffer. The mixture was adjusted to the original pH of 7.4 and then mixed overnight or longer via rotary mixing. The sample was checked for pH and then filtered through a 0.45 μm filter. If the pH drifted away, the sample was adjusted to its original pH and mixed for at least 15 minutes before filtration. The filtrate was analyzed using HPLC.
`COc1ccc2c(Nc3c(C)cncc3C)cc(=O)[nH]c2c1OCC(C)C` [Example 12, 4-(3,5-Dimethylpyridin-4-ylamino)-8-isobutoxy-7-methoxyquinolin-2(1H)-one] registered a solubility of no less than 1000 µg/mL.

As to `COc1ccc2c(Nc3c(Cl)cncc3Cl)cc(=O)[nH]c2c1OCCCCCCN1CCCNCC1` [Example 25, 8-(6-(1,4-Diazepan-1-yl)hexyloxy)-4-(3,5-dichloropyridin-4-ylamino)-7-methoxyquinolin-2(1H)-one], the solubility was no less than 1000 µg/mL.

In turn, `COc1ccc2c(Nc3c(Cl)cncc3Cl)cc(=O)[nH]c2c1OCCCCCCN1CCCN(C)CC1` [Example 26, 4-(3,5-Dichloropyridin-4-ylamino)-7-methoxy-8-(6-(4-methyl-1,4-diazepan-1-yl)hexyloxy)quinolin-2(1H)-one] gave a solubility of no less than 1000 µg/mL.

The molecule `COc1ccc2c(Nc3c(Cl)cncc3Cl)cc(=O)[nH]c2c1OCCCCCCN(C)CCCN(C)C` [Example 27, 4-(3,5-Dichloropyridin-4-ylamino)-8-(6-((3-(dimethylamino)propyl)(methyl)amino)hexyloxy)-7-methoxyquinolin-2(1H)-one] returned a solubility of no less than 1000 µg/mL.

The molecule `COc1ccc2c(Nc3c(Cl)cncc3Cl)cc(=O)[nH]c2c1OCCCCCCN` [Example 28, 8-(6-Aminohexyloxy)-4-(3,5-dichloropyridin-4-ylamino)-7-methoxyquinolin-2(1H)-one] displayed a solubility of no less than 1000 µg/mL.

The molecule `COc1ccc2c(Nc3c(Cl)cncc3Cl)cc(=O)[nH]c2c1OCCCCCCNCCO` [Example 29, 4-(3,5-Dichloropyridin-4-ylamino)-8-(6-(2-hydroxyethylamino)hexyloxy)-7-methoxyquinolin-2(1H)-one] had a solubility of no less than 1000 µg/mL.
